One data set has as its target T1, STAT3 (Homo sapiens, UniProt P40763).
T1 construct: endogenous in cells; host or cells: HMC3 (ATCC CRL-3304), 1321N1 (Sigma-Aldrich), SK-N-BE(2)-M17 (ATCC CRL-2267)
Put plainly: Western blot of total and phosphorylated STAT3 in human cell lines. The note with it: 50 μM; for p-STAT3 (Tyr705 and Ser727) / total STAT3: 48 hours. It is filed as cell-based. On the procedure: Cell and neuron cultures: Immortalized human microglia HMC3 cells (ATCC CRL-3304) and astrocytoma 1321N1 cells (Sigma-Aldrich; derived from human brain astrocytoma; Macintyre et al., 1972) were cultured in Eagle's minimum essential medium (EMEM) supplemented with 10% fetal bovine serum (FBS, Gibco) and 1% antibiotics and antimycotics (Gibco). Neuroblastoma SK-N-BE(2)-M17 (M17) (ATCC CRL-2267) cells were cultured in a 1:1 mixture of EMEM and F12 media, supplemented with 10% FBS plus 1% antibiotics and antimycotics.
HCQ treatment: Treatment with hydroxychloroquine Sulfate (Selleckchem, Catalog No.S4430) was performed at 50 μM concentration.
Western blot analysis: Protein extracts were obtained by lysing cells with a denaturing buffer containing 2% sodium dodecyl sulfate (SDS) (Sigma-Aldrich) in 50 mM HEPES. After boiling and sonication, whole-cell protein extracts were size-fractionated through polyacrylamide gels and transferred to nitrocellulose membranes (Bio-Rad). Membranes were blocked with 5% non-fat dry milk and immunoblotted. Primary antibodies were employed that recognized total STAT3 (124H6) (Cell Signaling, 9139T), phosphorylated STAT3 (Tyr705) (D3A7) XP® (Cell Signaling, 9145S), and phosphorylated STAT3 (Ser727) (Cell Signaling, 94994S).
Statistical analysis: Digitized images were obtained, processed, and quantified with ImageLab version 6.1 (BioRad Laboratories).

Data set [1] relates to Alzheimer's disease and related dementia (ADRD) in rheumatoid arthritis patients. As to the kind of experiment: Medicare claims cohort study of incident ADRD, HCQ vs methotrexate. It is filed as in vivo, human. An excerpt: The full study protocol for patient-level analysis in Medicare claims was pre-registered on clinicaltrials.gov prior to data analysis (NCT04691505) and contains detailed information on implementation including all codes that were used to identify study variables to allow future replication. The following sections summarize key methodologic details. Data source: Medicare Fee-For-Service claims data from 2007 through 2017 were used. Medicare Part A (hospitalizations), B (medical services), and D (prescription medications) claims are available for research purposes through the Centers for Medicare and Medicaid Services. A signed data use agreement with the CMS was available and the Brigham and Women's Hospital's Institutional Review Board approved this study. Study cohort: A new user, active comparator, observational cohort study design comparing methotrexate to hydroxychloroquine was employed. The patients were required to have continuous enrollment in Medicare parts A, B, and D during the baseline period of 365 days before initiation date of methotrexate or hydroxychloroquine, which was defined as the cohort entry date. Patients were required to have ≥1 diagnosis codes of rheumatoid arthritis during the baseline period but no prior use of any disease modifying antirheumatic treatments. Patients with existing diagnosis of Alzheimer's disease and related dementia (ADRD) any time prior to and including cohort entry date were excluded to focus on incident events. Patients with nursing home admission in 365 days prior to and including cohort entry date also were excluded as medication records for short nursing home stays are unavailable in Medicare claims. Outcome measurement: The endpoint of ADRD was identified based on diagnosis codes, recorded on 1 inpatient claim or 2 outpatient claims, of Alzheimer's disease, vascular dementia, senile, presenile, or unspecified dementia, or dementia in other diseases classified elsewhere. […] Alternative analytic approaches: To accommodate various uncertainties involved in pharmacoepidemiologic investigations focused on ADRD risk, the following alternative analyses were employed. Analysis 1—‘As-treated’ follow-up approach: In this approach, the follow-up started on the day following the cohort entry date and continued until treatment discontinuation or switch (to comparator treatment), insurance disenrollment, death, or administrative endpoint (December 2017). A 90-day ‘grace period’ after the end of the expected days-supply of the most recently filled prescription was considered to define the treatment discontinuation date to accommodate for suboptimal adherence during treatment periods. […] This follow-up approach addresses concerns related to informative censoring if patients discontinue or if physicians de-prescribe the treatments under consideration because of memory problems associated with ADRD, but the diagnosis is not recorded in the electronic healthcare records until after the end of follow-up due to treatment-related censoring. Analysis 3—incorporating a 6-month ‘symptoms to diagnosis’ period: In this approach, an outcome date was assigned that was 6 months before the first recorded ADRD date and excluded last 6 months of follow-up for those who are censored without an event to account for the possibility that ADRD symptoms likely appear some time before a formal diagnosis is recorded in insurance records, which leads to misclassification of ADRD onset. […]

Data set [2] has as its system Primary hippocampal neurons. Put plainly: Aβ toxicity assay. Conditions: HCQ 25, 2.5 or 0.25 μM. It is filed as cell-based, mouse. The procedure:
Aβ toxicity: Primary hippocampal neurons were prepared from E18.5 timed pregnant C57BL/6JRccHsd mice as previously described. Cells were seeded in poly-D-lysine pre-coated 96-well plates at a density of 4×10^4 cells/well and cultivated until DIV10 (Neurobasal, 2% B-27, 0.5 mM glutamine, 25 μM glutamate, 1% Penicillin-Streptomycin). On DIV10 pre-aggregated Aβ1-42 (Bachem 4061966, final concentration 10 μM, 48 h at 4° C.) was added to the cells in the presence or absence of Hydroxychloroquine sulfate (TargetMol, T0951) at 25 μM, 2.5 μM or 0.25 μM concentrations. On DIV16 cells were subject to MTT assay to determine cell viability.

T1 sequence (P40763 whole entry): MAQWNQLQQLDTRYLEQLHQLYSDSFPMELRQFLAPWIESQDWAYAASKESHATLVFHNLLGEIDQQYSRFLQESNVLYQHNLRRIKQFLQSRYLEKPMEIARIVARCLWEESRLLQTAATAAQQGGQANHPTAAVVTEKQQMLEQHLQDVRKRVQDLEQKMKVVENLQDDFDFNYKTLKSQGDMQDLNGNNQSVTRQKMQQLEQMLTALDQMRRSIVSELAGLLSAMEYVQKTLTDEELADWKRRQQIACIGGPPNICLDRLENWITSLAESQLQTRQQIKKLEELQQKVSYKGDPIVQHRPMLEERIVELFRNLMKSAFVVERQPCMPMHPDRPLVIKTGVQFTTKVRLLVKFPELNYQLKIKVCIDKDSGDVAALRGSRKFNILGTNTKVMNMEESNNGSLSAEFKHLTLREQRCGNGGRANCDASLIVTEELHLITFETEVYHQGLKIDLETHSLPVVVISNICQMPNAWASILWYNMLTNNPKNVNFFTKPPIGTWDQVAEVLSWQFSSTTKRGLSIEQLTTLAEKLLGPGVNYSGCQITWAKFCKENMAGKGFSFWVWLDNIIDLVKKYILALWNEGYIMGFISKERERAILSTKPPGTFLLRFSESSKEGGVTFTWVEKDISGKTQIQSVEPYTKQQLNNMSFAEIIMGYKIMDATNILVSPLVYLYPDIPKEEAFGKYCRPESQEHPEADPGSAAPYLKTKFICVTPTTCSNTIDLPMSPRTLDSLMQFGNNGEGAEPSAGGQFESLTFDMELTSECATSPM

With `CCN(CCO)CCCC(C)Nc1ccnc2cc(Cl)ccc12` (stereo not drawn) [HCQ, hydroxychloroquine], the cell viability result on STAT3 is “did not have adverse effects on cell viability”. For the same compound, the “p-STAT3 (Tyr705 and Ser727)” value at STAT3 (1321N1 cells) and on STAT3 (HMC3 cells) was “reduced” in each case. For the same compound, the “total STAT3” value on STAT3 (1321N1 cells) and at STAT3 (HMC3 cells) was “without alteration” throughout. In addition, at STAT3 (SK-N-BE(2)-M17 cells), the “phosphorylated STAT3 and total STAT3” value is “non-significant”. Further, the “lower risk of ADRD” value in data set [1] (Analysis 1, as-treated, vs MTX initiators) amounted to 8%; in data set [1] (Analysis 2, as-started, 6-month induction period), 13%; in data set [1] (Analysis 3, 6-month symptom to claims period) it was 16%. Further, in data set [1] (after approximately 2 years of treatment, compared to MTX, all four analyses), the “cumulative incidence of ADRD” value was “lower cumulative incidence”. The “lowering of incident AD” value in data set [1] (relative to methotrexate, across analyses) is listed as 8-16%. In data set [2], the “toxicity due to exogenous Aβ” value was “no effects”.
